target: memapsin 2 (Homo sapiens, UniProt P56817); test: Inhibition of memapsin 2 beta-secretase activity (fluorogenic substrate FS-2); format: biochemical; details: memapsin 2, pH 4, 37° C., fluorogenic substrate FS-2; read-out: M2Ki
Method: Potency of compounds were determined by measurement of their inhibition of memapsin 2 activity toward a fluorescent substrate. Kinetic inhibition experiments were performed using the procedure as described in Ermolieff, et al. (Biochemistry 39:12450-12456 (2000), the teachings of which are incorporated hereby in their entirety). Briefly, assays were performed at pH 4, 37° C., by pre-incubation of memapsin 2 enzyme with compound for 20 minutes. Activity measurements were initiated by addition of a fluorogenic substrate FS-2 (Bachem Americas, Torrance, Calif.) MCA-SEVNLDAEFR-DNP (SEQ ID NO.: 2). The substrate was derived from 10 amino acids of the human amyloid precursor protein (APP), with the Swedish variant amino acids at the beta-secretase cleavage site. The terminal amino acid was modified from arginine to lysine to facilitate derivatization with a functional group for detection by autofluorescence. The amino acid sequence of the “core” peptide of the substrate is SEVNLDAEFK (SEQ ID NO.: 3). The amino terminus was derivatized with (7-methoxycoumarin-4-yl)acetyl (MCA), and the epsilon amine of the lysine side chain of the terminal residue (K in sequence SEVNLDAEFK (SEQ ID NO.: 3)) was derivatized with 2,4-dinitorphenyl (DNP).
Fluorescent signal increase over time was measured as a rate of hydrolysis of the peptide substrate. Inhibition of hydrolytic rate was expressed relative to uninhibited controls and fit to a model for tight-binding inhibitors (J. Bieth, in “Proteinase Inhibitors,” Bayer Symposium V, 463-469, 1974, which is herein incorporated by reference for all purposes in its entirety).

Chain of memapsin 2 (P56817 46-501): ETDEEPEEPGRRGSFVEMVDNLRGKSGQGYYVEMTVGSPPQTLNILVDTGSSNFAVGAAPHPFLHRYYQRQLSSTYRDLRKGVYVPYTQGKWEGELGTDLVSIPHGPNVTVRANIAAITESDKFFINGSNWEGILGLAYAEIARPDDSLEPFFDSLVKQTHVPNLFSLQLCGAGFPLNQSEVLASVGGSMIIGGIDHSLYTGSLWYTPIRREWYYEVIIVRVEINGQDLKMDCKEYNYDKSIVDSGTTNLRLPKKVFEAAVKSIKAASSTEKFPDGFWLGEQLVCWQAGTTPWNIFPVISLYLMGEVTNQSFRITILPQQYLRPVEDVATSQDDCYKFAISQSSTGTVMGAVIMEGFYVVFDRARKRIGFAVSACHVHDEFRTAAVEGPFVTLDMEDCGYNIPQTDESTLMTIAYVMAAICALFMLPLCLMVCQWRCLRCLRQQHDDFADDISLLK

`CN(Cc1nc(CF)cs1)C(=O)c1cccc(C(=O)N[C@@H](Cc2ccccc2)[C@H](O)CNCc2cncc(C(C)(C)F)c2)c1` [Compound 281, N1-((4-(fluoromethyl)thiazol-2-yl)methyl)-N3-((2S,3R)-4-((5-(2-fluoropropan-2-yl)pyridin-3-yl)methylamino)-3-hydroxy-1-phenylbutan-2-yl)-N1-methylisophthalamide] was tested. Which Ki did it give?
The Ki was < 300 nM.

How did the Ki turn out when `COc1ccc(C(F)(F)F)cc1CNC[C@@H](O)[C@H](Cc1ccccc1)NC(=O)c1cccc(C(=O)N(C)Cc2nc(C)cs2)c1` [Compound 282, N1-((2S,3R)-3-hydroxy-4-(2-methoxy-5-(trifluoromethyl)benzylamino)-1-phenylbutan-2-yl)-N3-methyl-N3-((4-methylthiazol-2-yl)methyl)isophthalamide] was run?
The Ki was > 501 nM.

`CNc1cc(CNC[C@@H](O)[C@H](Cc2ccccc2)NC(=O)c2cccc(C(=O)N(C)Cc3nc(C)cs3)c2)cc(C(F)(F)F)c1` [Compound 283, N1-((2S,3R)-3-hydroxy-4-(3-(methylamino)-5-(trifluoromethyl)benzylamino)-1-phenylbutan-2-yl)-N3-methyl-N3-((4-methylthiazol-2-yl)methyl)isophthalamide] was tested. Which Ki did it give?
Its Ki is < 300 nM.

Which Ki does the source give for `COC(OC)C(C)c1cncc(CNC[C@@H](O)[C@H](Cc2ccccc2)NC(=O)c2cccc(C(=O)N(C)Cc3nc(C)cs3)c2)c1` (stereo partly drawn) [Compound 284, N1-((2S,3R)-4-((5-(1,1-dimethoxypropan-2-yl)pyridin-3-yl)methylamino)-3-hydroxy-1-phenylbutan-2-yl)-N3-methyl-N3-((4-methylthiazol-2-yl)methyl)isophthalamide] here?
The Ki was < 300 nM.

Which Ki does the source give for `CC(C)c1cncc(CNC[C@@H](O)[C@H](Cc2ccccc2)NC(=O)c2cccc(C(=O)N(C)Cc3nc(C(F)F)cs3)c2)c1` [Compound 285, N1-((4-(difluoromethyl)thiazol-2-yl)methyl)-N3-((2S,3R)-3-hydroxy-4-((5-isopropylpyridin-3-yl)methylamino)-1-phenylbutan-2-yl)-N1-methylisophthalamide] here?
Its Ki is < 300 nM.

With `CN(Cc1nc(C(F)F)cs1)C(=O)c1cccc(C(=O)N[C@@H](Cc2ccccc2)[C@H](O)CNCc2cncc(C(C)(C)F)c2)c1` [Compound 286, N1-((4-(difluoromethyl)thiazol-2-yl)methyl)-N3-((2S,3R)-4-((5-(2-fluoropropan-2-yl)pyridin-3-yl)methylamino)-3-hydroxy-1-phenylbutan-2-yl)-N1-methylisophthalamide] as the compound, how does the Ki read?
The Ki was < 300 nM.

Which Ki does the source give for `Cc1csc(CN(C)C(=O)c2cccc(C(=O)N[C@@H](Cc3ccccc3)[C@H](O)CNCc3cnn(C)c3)c2)n1` [Compound 287, N1-((2S,3R)-3-hydroxy-4-((1-methyl-1H-pyrazol-4-yl)methylamino)-1-phenylbutan-2-yl)-N3-methyl-N3-((4-methylthiazol-2-yl)methyl)isophthalamide] here?
Its Ki is < 300 nM.

With `C=C(C)c1cncc(C(=O)NC[C@@H](O)[C@H](Cc2ccccc2)NC(=O)c2cccc(C(=O)N(C)Cc3nc(C)cs3)c2)c1` [Compound 288, N1-((2S,3R)-3-hydroxy-1-phenyl-4-(5-(prop-1-en-2-yl)nicotinamido)butan-2-yl)-N3-methyl-N3-((4-methylthiazol-2-yl)methyl)isophthalamide] as the compound, how does the Ki read?
Its Ki is > 501 nM.

Which Ki does the source give for `Cc1csc(CN(C)C(=O)c2cc(C(=O)N[C@@H](Cc3ccccc3)[C@H](O)CNCc3cccc(C(F)(F)F)c3)cc(-c3ncco3)c2)n1` [Compound 289, N1-((2S,3R)-3-hydroxy-1-phenyl-4-(3-(trifluoromethyl)benzylamino)butan-2-yl)-N3-methyl-N3-((4-methylthiazol-2-yl)methyl)-5-(oxazol-2-yl)isophthalamide] here?
Its Ki is < 300 nM.

Which Ki does the source give for `COc1cccc([C@@H](C)NC[C@@H](O)[C@H](Cc2ccccc2)NC(=O)c2cc(C(=O)N(C)Cc3nc(C)cs3)cc(-c3ncco3)c2)c1` [Compound 290, N1-((2S,3R)-3-hydroxy-4-((R)-1-(3-methoxyphenyl)ethylamino)-1-phenylbutan-2-yl)-N3-methyl-N3-((4-methylthiazol-2-yl)methyl)-5-(oxazol-2-yl)isophthalamide] here?
The Ki was < 300 nM.

`Cc1csc(CN(C)C(=O)c2cccc(C(=O)N[C@@H](Cc3ccccc3)[C@H](O)CNCc3cccc(C(F)(F)F)c3O)c2)n1` [Compound 291, N1-((2S,3R)-3-hydroxy-4-(2-hydroxy-3-(trifluoromethyl)benzylamino)-1-phenylbutan-2-yl)-N3-methyl-N3-((4-methylthiazol-2-yl)methyl)isophthalamide] was tested. Which Ki did it give?
The Ki was > 501 nM.

How did the Ki turn out when `COc1cccc([C@H](C)NC[C@@H](O)[C@H](Cc2ccccc2)NC(=O)c2cc(C(=O)N(C)Cc3nc(C)cs3)cc(-c3ncco3)c2)c1` [Compound 292, N1-((2S,3R)-3-hydroxy-4-((S)-1-(3-methoxyphenyl)ethylamino)-1-phenylbutan-2-yl)-N3-methyl-N3-((4-methylthiazol-2-yl)methyl)-5-(oxazol-2-yl)isophthalamide] was run?
The Ki was < 300 nM.

Which Ki does the source give for `Cc1csc(CNC[C@@H](O)[C@H](Cc2ccccc2)NC(=O)c2cccc(C(=O)N(C)Cc3nc(C)cs3)c2)n1` [Compound 294, N1-((2S,3R)-3-hydroxy-4-((4-methylthiazol-2-yl)methylamino)-1-phenylbutan-2-yl)-N3-methyl-N3-((4-methylthiazol-2-yl)methyl)isophthalamide] here?
The Ki was > 501 nM.

How did the Ki turn out when `Cc1csc(CN(C)C(=O)c2cc(C(=O)N[C@@H](Cc3ccccc3)[C@H](O)CNCc3cncc(C(C)C)c3)cc(-c3cn[nH]c3)c2)n1` [Compound 295, N1-((2S,3R)-3-hydroxy-4-((5-isopropylpyridin-3-yl)methylamino)-1-phenylbutan-2-yl)-N3-methyl-N3-((4-methylthiazol-2-yl)methyl)-5-(1H-pyrazol-4-yl)isophthalamide] was run?
The Ki was < 300 nM.

With `COc1cccc(CNC[C@@H](O)[C@H](Cc2ccccc2)NC(=O)c2cccc(C(=O)N(C)Cc3nc(C)cs3)c2O)c1` [Compound 296, 2-hydroxy-N1-((2S,3R)-3-hydroxy-4-(3-methoxybenzylamino)-1-phenylbutan-2-yl)-N3-methyl-N3-((4-methylthiazol-2-yl)methyl)isophthalamide] as the compound, how does the Ki read?
The Ki was > 501 nM.

Which Ki does the source give for `Cc1csc(CN(C)C(=O)c2cccc(C(=O)N[C@@H](Cc3ccccc3)[C@H](O)CNCc3cncc(C(C)C)c3)c2O)n1` [Compound 297, 2-hydroxy-N1-((2S,3R)-3-hydroxy-4-((5-isopropylpyridin-3-yl)methylamino)-1-phenylbutan-2-yl)-N3-methyl-N3-((4-methylthiazol-2-yl)methyl)isophthalamide] here?
The Ki was > 501 nM.

With `Cc1csc(CN(C)C(=O)c2cc(C(=O)N[C@@H](Cc3ccccc3)[C@H](O)CNCc3cncc(C(C)C)c3)cc(-c3ccc(N(C)C)cc3)c2)n1` [Compound 298, 4′-(dimethylamino)-N3-((2S,3R)-3-hydroxy-4-((5-isopropylpyridin-3-yl)methylamino)-1-phenylbutan-2-yl)-N5-methyl-N5-((4-methylthiazol-2-yl)methyl)biphenyl-3,5-dicarboxamide] as the compound, how does the Ki read?
Its Ki is < 300 nM.

How did the Ki turn out when `Cc1csc(CN(C)C(=O)c2cc(C(=O)N[C@@H](Cc3ccccc3)[C@H](O)CNCc3cncc(C(C)C)c3)cc(-n3ccnc3)c2)n1` [Compound 300, N1-((2S,3R)-3-hydroxy-4-((5-isopropylpyridin-3-yl)methylamino)-1-phenylbutan-2-yl)-5-(1H-imidazol-1-yl)-N3-methyl-N3-((4-methylthiazol-2-yl)methyl)isophthalamide] was run?
Its Ki is < 300 nM.

`COc1cccc([C@H](C)NC[C@@H](O)[C@H](Cc2ccccc2)NC(=O)c2cc(C(=O)N(C)Cc3nc(C)cs3)cc(C(F)F)c2)c1` [Compound 301, 5-(difluoromethyl)-N1-((2S,3R)-3-hydroxy-4-((S)-1-(3-methoxyphenyl)ethylamino)-1-phenylbutan-2-yl)-N3-methyl-N3-((4-methylthiazol-2-yl)methyl)isophthalamide] was tested. Which Ki did it give?
The Ki was < 300 nM.

How did the Ki turn out when `Cc1csc(CN(C)C(=O)c2cccc(C(=O)N[C@@H](Cc3ccccc3)[C@H](O)CNCc3cc(C(F)(F)F)ccn3)c2)n1` [Compound 302, N1-((2S,3R)-3-hydroxy-1-phenyl-4-((4-(trifluoromethyl)pyridin-2-yl)methylamino)butan-2-yl)-N3-methyl-N3-((4-methylthiazol-2-yl)methyl)isophthalamide] was run?
The Ki was < 300 nM.

With `Cc1csc(CN(C)C(=O)c2cc(C(=O)N[C@@H](Cc3ccccc3)[C@H](O)CNCc3cncc(C(C)C)c3)cc(-c3ccoc3)c2)n1` [Compound 303, 5-(furan-3-yl)-N1-((2S,3R)-3-hydroxy-4-((5-isopropylpyridin-3-yl)methylamino)-1-phenylbutan-2-yl)-N3-methyl-N3-((4-methylthiazol-2-yl)methyl)isophthalamide] as the compound, how does the Ki read?
The Ki was < 300 nM.

`Cc1csc(CN(C)C(=O)c2cccc(C(=O)N[C@@H](Cc3ccccc3)[C@H](O)CNCc3cncc(NC(C)C)c3)c2)n1` [Compound 304, N1-((2S,3R)-3-hydroxy-4-((5-(isopropylamino)pyridin-3-yl)methylamino)-1-phenylbutan-2-yl)-N3-methyl-N3-((4-methylthiazol-2-yl)methyl)isophthalamide] was tested. Which Ki did it give?
The Ki was < 300 nM.

— patent US20100286145A1, “ISOPHTHALAMIDE DERIVATIVES INHIBITING BETA-SECRETASE ACTIVITY” (CoMentis, Inc., priority 2007, published 2010)
